Reference: patent US20260297042A1, “BIARYLAMIDE DERIVATIVES AND THEIR USE AS PKMYT1 INHIBITORS” (CANCER RESEARCH TECHNOLOGY LIMITED, priority 2023, published 2026)

Key:
Human PKMYT1 = target: T1, Human PKMYT1 (Homo sapiens, UniProt Q99640); experiment: PKMYT1 biochemical ADP-Glo enzymatic assay; details: PKMYT1 kinase domain 15 nM; ADP-Glo; banded values
T1 construct: Human PKMYT1 75-362 was cloned as a TEV cleavable 6xHis fusion; 6xHis (TEV cleavable) (cleaved yes); made in house; host or cells: bacterial cells
T1 sequence (Q99640 75-362): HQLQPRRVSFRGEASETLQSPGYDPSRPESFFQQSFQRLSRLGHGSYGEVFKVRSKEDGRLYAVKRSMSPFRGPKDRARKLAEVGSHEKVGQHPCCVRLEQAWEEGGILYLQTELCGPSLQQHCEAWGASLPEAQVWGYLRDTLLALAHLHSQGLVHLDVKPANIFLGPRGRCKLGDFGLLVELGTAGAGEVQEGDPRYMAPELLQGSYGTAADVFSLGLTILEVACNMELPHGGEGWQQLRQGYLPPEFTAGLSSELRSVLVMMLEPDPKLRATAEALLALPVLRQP
Method in brief: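 Measures inhibition of PKMYT1 autonomous ATP hydrolysis: bacterially expressed human enzyme (75-362, tag cleaved) at 15 nM with 500 µM ATP for 60 min at 26 °C, then ADP-Glo Max detection. IC50s accepted only when replicates agreed within 3-fold and curve r2 exceeded 0.9.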

WEE1 = target: T2, WEE1 (Homo sapiens, UniProt P30291); experiment: Selectivity versus WEE1 assay (ADP-Glo enzymatic assay); format: biochemical; details: for IC50: WEE1 15 nM, ADP-Glo, banded values; for PKMYT1 vs. WEE1 selectivity: fold difference in selectivity for PKMYT1 over WEE1, banded
T2 construct: purchased Thermo Fisher PR7373A
Method in brief: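 Same format as the PKMYT1 assay: WEE1 at 15 nM final with 30 µM ATP, 60 min at 26° C, ADP-Glo luminescence detection, IC50 by dose-response fitting.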

T2 sequence (P30291 whole entry): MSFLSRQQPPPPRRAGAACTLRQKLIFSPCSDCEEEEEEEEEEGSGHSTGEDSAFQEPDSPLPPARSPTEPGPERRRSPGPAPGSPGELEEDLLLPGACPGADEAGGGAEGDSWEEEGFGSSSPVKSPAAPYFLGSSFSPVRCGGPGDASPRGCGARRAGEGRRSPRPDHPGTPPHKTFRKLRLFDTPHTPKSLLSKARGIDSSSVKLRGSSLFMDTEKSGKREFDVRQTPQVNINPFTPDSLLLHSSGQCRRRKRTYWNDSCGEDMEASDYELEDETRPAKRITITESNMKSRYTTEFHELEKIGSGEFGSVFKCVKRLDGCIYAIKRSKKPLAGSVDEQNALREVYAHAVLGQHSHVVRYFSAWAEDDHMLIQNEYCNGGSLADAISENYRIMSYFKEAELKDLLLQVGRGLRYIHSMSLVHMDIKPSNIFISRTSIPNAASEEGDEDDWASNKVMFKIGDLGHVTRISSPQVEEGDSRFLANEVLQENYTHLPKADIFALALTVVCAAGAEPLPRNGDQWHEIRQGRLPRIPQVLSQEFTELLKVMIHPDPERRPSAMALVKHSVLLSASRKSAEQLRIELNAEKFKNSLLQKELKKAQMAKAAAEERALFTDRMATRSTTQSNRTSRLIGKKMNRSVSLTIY

| SMILES | IC50 (Human PKMYT1) | IC50 (WEE1) | PKMYT1 vs. WEE1 selectivity (WEE1) |
| --- | --- | --- | --- |
| Cc1ccccc1Nc1ncc(C(=O)Nc2c(C)ccc(O)c2C)s1 [BAA-483, N-(3-hydroxy-2,6-dimethylphenyl)-2-(o-tolylamino)thiazole-5-carboxamide] | 0.05 to 1 µM | > 11 µM | X (100-<1000 fold) |
| CCc1ccccc1Nc1ncc(C(=O)Nc2c(C)ccc(O)c2C)s1 [BAA-484, 2-((2-ethylphenyl)amino)-N-(3-hydroxy-2,6-dimethylphenyl)thiazole-5-carboxamide] | 0.05 to 1 µM | > 11 µM | X (100-<1000 fold) |
| Cc1ccc(O)c(C)c1NC(=O)c1cnc(Nc2cccc3scnc23)s1 [BAA-486, 2-(benzo[d]thiazol-4-ylamino)-N-(3-hydroxy-2,6-dimethylphenyl)thiazole-5-carboxamide] | 0.05 to 1 µM | > 11 µM | X (100-<1000 fold) |
| Cc1ccc(O)c(C)c1NC(=O)c1cnc(Nc2cccc3cccnc23)s1 [BAA-487, N-(3-hydroxy-2,6-dimethylphenyl)-2-(quinolin-8-ylamino) thiazole-5-carboxamide] | 0.05 to 1 µM | > 11 µM | X (100-<1000 fold) |
| Cc1ccc(O)c(C)c1NC(=O)c1cnc(Nc2cc(Br)n(C)n2)s1 [BAA-494, 2-((5-Bromo-1-methyl-1H-pyrazol-3-yl)amino)-N-(3-hydroxy-2,6-dimethylphenyl)thiazole-5-carboxamide] | 0.05 to 1 µM | > 11 µM | X (100-<1000 fold) |
| Cc1c(O)ccc(Br)c1NC(=O)c1cnc(Nc2ccn(C)n2)s1 [BAA-498, N-(6-bromo-3-hydroxy-2-methylphenyl)-2-((1-methyl-1H-pyrazol-3-yl)amino)thiazole-5-carboxamide] | 0.05 to 1 µM | 1 to 11 µM | W (10-<100 fold) |
| Cc1cn(CCN(C)C)nc1Nc1ncc(C(=O)Nc2c(C)ccc(O)c2C)s1 [BAA-501, 2-((1-(2-(dimethylamino)ethyl)-4-methyl-1H-pyrazol-3-yl)amino)-N-(3-hydroxy-2,6-dimethylphenyl)thiazole-5-carboxamide] | 0.05 to 1 µM | > 11 µM | W (10-<100 fold) |
| CCOc1ccc(Nc2ncc(C(=O)Nc3c(C)ccc(O)c3C)s2)cc1 [BAA-503, 2-((4-ethoxyphenyl)amino)-N-(3-hydroxy-2,6-dimethylphenyl)thiazole-5-carboxamide] | 0.05 to 1 µM | 1 to 11 µM | W (10-<100 fold) |
| Cc1ccc(O)c(C)c1NC(=O)c1cnc(Nc2cc(C#N)n(C)n2)s1 [BAA-505, 2-((5-cyano-1-methyl-1H-pyrazol-3-yl)amino)-N-(3-hydroxy-2,6-dimethylphenyl)thiazole-5-carboxamide] | 0.05 to 1 µM | 1 to 11 µM | W (10-<100 fold) |
| Cc1ccc(O)c(C)c1NC(=O)c1cnc(Nc2cc(C)n(C(C)C(=O)N3CCCC3)n2)s1 (stereo not drawn) [BAA-508, N-(3-hydroxy-2,6-dimethylphenyl)-2-((5-methyl-1-(1-oxo-1-(pyrrolidin-1-yl)propan-2-yl)-1H-pyrazol-3-yl)amino)thiazole-5-carboxamide] | 0.05 to 1 µM | > 11 µM | W (10-<100 fold) |
| Cc1ccc(O)c(C)c1NC(=O)c1cnc(Nc2cc(C)n(C(C)C(=O)N3CCN(C)CC3)n2)s1 (stereo not drawn) [BAA-511, N-(3-hydroxy-2,6-dimethylphenyl)-2-((5-methyl-1-(1-(4-methylpiperazin-1-yl)-1-oxopropan-2-yl)-1H-pyrazol-3-yl)amino)thiazole-5-carboxamide] | 0.05 to 1 µM | > 11 µM | W (10-<100 fold) |
| Cc1cc(C)c(NC(=O)c2cnc(Nc3ccn(CC(=O)N4CCCC4)n3)s2)c(C)c1O [BAA-516, N-(3-hydroxy-2,4,6-trimethylphenyl)-2-((1-(2-oxo-2-(pyrrolidin-1-yl)ethyl)-1H-pyrazol-3-yl)amino)thiazole-5-carboxamide] | 0.05 to 1 µM | > 11 µM | X (100-<1000 fold) |
| Cc1ccc(O)c(C)c1NC(=O)c1cnc(Nc2cnn(C)c2C)s1 [BAA-520, 2-((1,5-dimethyl-1H-pyrazol-4-yl)amino)-N-(3-hydroxy-2,6-dimethylphenyl)thiazole-5-carboxamide] | 0.05 to 1 µM | > 11 µM | X (100-<1000 fold) |
| Cc1ccc(O)c(C)c1NC(=O)c1cnc(Nc2cn(C)nc2C)s1 [BAA-521, 2-((1,3-dimethyl-1H-pyrazol-4-yl)amino)-N-(3-hydroxy-2,6-dimethylphenyl)thiazole-5-carboxamide] | 0.05 to 1 µM | > 11 µM | X (100-<1000 fold) |

The next lines start with the values.

| IC50 (Human PKMYT1) | IC50 (WEE1) | PKMYT1 vs. WEE1 selectivity (WEE1) | SMILES |
| --- | --- | --- | --- |
| 0.05 to 1 µM | > 11 µM | X (100-<1000 fold) | Cn1ccc(Nc2ncc(C(=O)Nc3c(F)ccc(O)c3Cl)s2)n1 [BAA-480, N-(2-Chloro-6-fluoro-3-hydroxyphenyl)-2-((1-methyl-1H-pyrazol-3-yl)amino)thiazole-5-carboxamide] |
| < 0.05 µM | > 11 µM | Y (1000-5000 fold) | O=C(Nc1c(Cl)ccc(O)c1F)c1cnc(Nc2ccn(CC(=O)N3CCCC3)n2)s1 [BAA-481, N-(6-Chloro-2-fluoro-3-hydroxy-phenyl)-2-[[1-(2-oxo-2-pyrrolidin-1-yl-ethyl)pyrazol-3-yl]amino]thiazole-5-carboxamide] |
| < 0.05 µM | > 11 µM | Y (1000-5000 fold) | O=C(Nc1c(F)ccc(O)c1Cl)c1cnc(Nc2ccn(CC(=O)N3CCCC3)n2)s1 [BAA-482, N-(2-chloro-6-fluoro-3-hydroxyphenyl)-2-((1-(2-oxo-2-(pyrrolidin-1-yl)ethyl)-1H-pyrazol-3-yl)amino) thiazole-5-carboxamide] |
| < 0.05 µM | > 11 µM | X (100-<1000 fold) | Cc1ccc(O)c(C)c1NC(=O)c1cnc(Nc2cccc3ncsc23)s1 [BAA-485, 2-(benzo[d]thiazol-7-ylamino)-N-(3-hydroxy-2,6-dimethylphenyl)thiazole-5-carboxamide] |
| < 0.05 µM | > 11 µM | Y (1000-5000 fold) | Cc1ccc(O)c(C)c1NC(=O)c1cnc(Nc2nn(C)cc2C#N)s1 [BAA-496, 2-((4-cyano-1-methyl-1H-pyrazol-3-yl)amino)-N-(3-hydroxy-2,6-dimethylphenyl)thiazole-5-carboxamide] |
| < 0.05 µM | > 11 µM | X (100-<1000 fold) | Cc1cn(C(C)C(=O)N2CCN(C)CC2)nc1Nc1ncc(C(=O)Nc2c(C)ccc(O)c2C)s1 (stereo not drawn) [BAA-500, N-(3-hydroxy-2,6-dimethylphenyl)-2-((4-methyl-1-(1-(4-methylpiperazin-1-yl)-1-oxopropan-2-yl)-1H-pyrazol-3-yl)amino)thiazole-5-carboxamide] |
| < 0.05 µM | > 11 µM | X (100-<1000 fold) | CCC(C(=O)N(C)C)n1ccc(Nc2ncc(C(=O)Nc3c(C)ccc(O)c3C)s2)n1 (stereo not drawn) [BAA-507, 2-((1-(1-(dimethylamino)-1-oxobutan-2-yl)-1H-pyrazol-3-yl)amino)-N-(3-hydroxy-2,6-dimethylphenyl)thiazole-5-carboxamide] |
| < 0.05 µM | 1 to 11 µM | X (100-<1000 fold) | CC(=O)Nc1ccc(Nc2ncc(C(=O)Nc3c(C)ccc(O)c3C)s2)cc1 [BAA-513, 2-((4-Acetamidophenyl)amino)-N-(3-hydroxy-2,6-dimethylphenyl)thiazole-5-carboxamide] |
| < 0.05 µM | 1 to 11 µM | X (100-<1000 fold) | Cc1cn(CC(=O)N(C)CC(F)(F)F)nc1Nc1ncc(C(=O)Nc2c(C)ccc(O)c2C)s1 [BAA-514, N-(3-hydroxy-2,6-dimethylphenyl)-2-((4-methyl-1-(2-(methyl(2,2,2-trifluoroethyl)amino)-2-oxoethyl)-1H-pyrazol-3-yl)amino)thiazole-5-carboxamide] |
| < 0.05 µM | 1 to 11 µM | X (100-<1000 fold) | Cc1ccc(O)c(C)c1NC(=O)c1cnc(Nc2ccc3c(c2)NC(=O)CO3)s1 [BAA-515, N-(3-hydroxy-2,6-dimethylphenyl)-2-((3-oxo-3,4-dihydro-2H-benzo[b][1,4]oxazin-6-yl)amino)thiazole-5-carboxamide] |
| < 0.05 µM | 1 to 11 µM | W (10-<100 fold) | Cc1ccc(O)c(C)c1NC(=O)c1cnc(Nc2cc(C)n(CCC#N)n2)s1 [BAA-518, 2-((1-(2-cyanoethyl)-5-methyl-1H-pyrazol-3-yl)amino)-N-(3-hydroxy-2,6-dimethylphenyl)thiazole-5-carboxamide] |
| < 0.05 µM | > 11 µM | X (100-<1000 fold) | Cc1c(O)ccc(Br)c1NC(=O)c1cnc(Nc2ccn(CC(=O)N3CCCC3)n2)s1 [BAA-519, N-(6-Bromo-3-hydroxy-2-methyl-phenyl)-2-[[1-(2-oxo-2-pyrrolidin-1-yl-ethyl)pyrazol-3-yl]amino]thiazole-5-carboxamide] |
